# In EP2608783B1, “USE OF GLYCYRRHETINIC ACID, GLYCYRRHIZIC ACID AND RELATED COMPOUNDS FOR PREVENTION AND/OR TREATMENT OF PULMONARY FIBROSIS” (Zhang, Lurong, priority 2010, dated 2012):
# What was measured:
# [1] = tested on: inflammatory mediators (IMs), including IL1a, TNFa, PF4 and VCAM-1; test: Inflammatory mediators in lung homogenates by ELISA, acute phase of IR-induced pneumonitis; type: in vivo, C57BL/6 fibrosis-prone mice; conditions: 2.5 days after thoracic IR at 15 Gy, compared to vehicle-treated mice, p<0.05
# Method: Briefly, C57BL/6 fibrosis-prone mice received a single-dose of thoracic IR at 15 Gy with a dose rate of 1.9 Gy/min. Six hours after IR exposure, the mice were divided into the following treatment groups: 1) normal (received 0 Gy; no treatment); 2) vehicle-treated; 3) GA-treated (30-40 mg/kg/ q.o.d) (i.e. every other day) (the GA dosage used herein was derived from the effective dosage for humans (3-4 mg/kg), which is typically 6-10 times lower than that of mice); 4) dexamethasone-treated (Positive Control 1) (Dex, 3 mg/kg, i.m. or p.o. qod); 5) amifostine-treated (Positive Control 2) (Ami, 200 mg/kg/ i.v, 0.5 hr prior to irradiation); and 6) celebrex-treated (Positive Control 3) (30 mg/kg, po, qod).
# The mice were sacrificed 2.5 days after IR exposure, and fresh lung tissue homogenates were prepared using lysis buffer mixed with protenase inhibitor cocktails. After protein concentration was adjusted to 1 mg/ml, the fresh lung homogenates were added to ELISA plates at a concentration of 100 µl/well. The levels of inflammatory mediators were measured by ELISA.
# [2] = tested on: IR-induced pneumonitis; test: Clinical case: GLA tablets in a lung cancer patient receiving 2nd IR treatment; type: in vivo; conditions: one patient
# Method: In collaboration with radiation oncologists at the First Affiliated Hospital of Fujian Medical School in China, GLA tablets (produced by Minophagen Co. in Japan and available in pharmacies in China) were administered to a patient who received their 2nd IR treatment for lung cancer. […] To control the progression of pneumonitis, they received dexamethasone treatment. Due to tumor re-growth 9 months after their 1st IR treatment, they received a 2nd IR treatment with warnings that IR may worsen pneumonitis. In order to mitigate IR-induced lung injury, GLA was administered at a dose of 150 mg per day (equivalent to GA about 85 mg per day) starting from the date of 2nd IR treatment for 3 months. The result was unexpectedly surprising.
# [3] = tested on: IR-induced pneumonitis; test: Sub-acute phase of IR-induced pneumonitis: lung tissue and bronchoalveolar lavage fluid (BALF) assays; type: in vivo, C57BL/6 fibrosis-prone mice
# Method: Briefly, C57BL/6 fibrosis-prone mice received a thoracic IR and were treated as described in Example 2. The mice were sacrificed 17 days after IR exposure, and lung tissues were harvested. Bronchoalveolar lavage fluid (BALF) assays were performed.
# [4] = tested on: IL1a, TNFa, lymphotactin and p-selectin; test: Inflammatory mediators, GA given 24 hours after IR exposure; type: in vivo, mice; conditions: GA administered 24 hours after IR exposure; thoracic IR at 5, 10 and 15 Gy
# Method: The administration of GA 24 hours after IR exposure can effectively block the surge in inflammatory responses.
# [5] = Long-term toxicity observation (activity, fur morphology, body weight); type: in vivo
# From the text: No mouse died during GA treatment.
# [6] = tested on: IR-induced pulmonary fibrosis; test: Lung compliance (plethysmograph pressure-volume measurements); type: in vivo, mice; conditions: 6.5 months after IR exposure at 15 Gy; P<0.05
# Method: To assess the effects of GA on lung compliance, mice were anesthetized and their trachea were surgically exposed and incised. An 18-gauge, 1 cm stainless steel tube was inserted into the trachea and secured with surgical sutures. The respiratory rate and tidal volume of the mice were measured by a Harvard rodent ventilator. The average respiratory rate was 150 breaths per minute and the tidal volume was adjusted according to the weight (0.01 ml per gram body weight). The mice were then placed in a plethysmograph for pressure-volume measurements.
# [7] = tested on: IR-induced pneumonitis; test: Lung morphology: plasma exudation and inflammatory cell infiltration, acute phase of IR-induced pneumonitis; type: in vivo, C57BL/6 fibrosis-prone mice; conditions: 2.5 days after thoracic IR at 15 Gy
# Method: Briefly, C57BL/6 fibrosis-prone mice received a single-dose of thoracic IR at 15 Gy with a dose rate of 1.9 Gy/min and were treated as described in Example 2. The mice were sacrificed 2.5 days after IR exposure, and lung tissues were harvested and analyzed for morphological changes.
# [8] = tested on: IR-induced fibrosis; test: Lung histology (H&E stain, trichrome blue collagen stain) in IR-induced fibrosis; type: in vivo, mice; conditions: GA 40 mg/kg/q.o.d. for 3 months; 7 months after IR exposure at 15 Gy
# Method: Briefly, mice treated with GA (40 mg/kg/q.o.d.) for 3 months were sacrificed 7 months after IR exposure at 15 Gy, and lung tissue specimens were stained using hematoxylin and eosin (H&E) stain. […] To assess whether GA reduces abnormal collagen deposition in lungs, lung tissue specimen was stained with collagen-binding trichrome blue dye.
# [9] = tested on: hydroxyproline; TGFβ; test: Hydroxyproline and TGFβ levels in lungs; type: in vivo, mice
# From the text: The reduction of collagen deposition was further analyzed by measuring the levels of hydroxyproline, a key component of collagen.
# [10] = tested on: growth hormone (GH); test: Plasma growth hormone by ELISA during long-term treatment
# Method: In addition, plasma levels of growth hormone (GH) were measured using ELISA at Weeks 6, 7, and 10 after GA treatments.
# [11] = tested on: IR-induced pulmonary fibrosis; test: Lung density by cone beam CT scan (CBCT) in IR-induced pulmonary fibrosis; type: in vivo, mice; conditions: for abnormal increase in lung density: 7.5 months after IR exposure at 15 Gy (Figure 14), P<0.05
# Method: To assess effects of GA on lung density, cone beam CT scan (CBCT) of mouse lungs was performed. CBCT provides a complete 3D 650×650×428 scan (i.e. 428 slices) of the lungs with isotropic resolution at 270 µm (central slice shown in Fig. 11) in 30 seconds. The scanner achieves a CT density sensitivity of ∼[…], and thus, changes in lung density can be discerned. The CBCT imaging data were further analyzed using MATLAB software. The lungs were automatically segmented (Fig. 12A) and a 3D image was generated for each mouse lung (Fig. 12B). To reduce the effect of cardiac motion on the mean value of lung density, boundaries of the lungs were not used for analysis. A histogram of voxel intensity (pulmonary tissue density) of each mouse was created (Fig. 13).
# [12] = tested on: IR-induced pulmonary fibrosis; test: Respiratory rate (rodent ventilator with pressure plethysmograph) in IR-induced pulmonary fibrosis; type: in vivo, mice; conditions: GA 30-40 mg/kg q.o.d. or twice/week for 3 months; 7 months after IR at 15 Gy, 5 months after IR at 18 Gy; P<0.05
# Method: Mice exposed to thoracic IR develops pulmonary fibrosis 6 months after IR exposure at 18 Gy, 8 months after IR exposure at 15 Gy, and 10 months after IR exposure at 12.5 Gy. To access the treatment effects of GA on lung fibrosis and lung function, the respiratory rate, lung density, and lung compliance of the mice were determined. To assess improvement on respiratory function, mice exposed to thoracic IR at 15 Gy were treated with GA (30-40 mg/kg) q.o.d. or twice/week for 3 months. Mouse respiratory rate was measured using a Harvard rodent ventilator connected to a pressure plethysmograph.
# [13] = tested on: SP-D and IL1a; test: Plasma levels of SP-D and IL1a, acute phase of IR-induced pneumonitis; type: in vivo, C57BL/6 fibrosis-prone mice; conditions: 2.5 days after thoracic IR at 15 Gy; P<0.05
# Method: IR damages lung epithelium and endothelium cells, and causes dysfunction of tight junction, increased cellular permeability, and the loss of integrity of the alveolar-capillary barrier. As a result, SP-D and ILla abnormally enter into the blood from inflamed pulmonary tissue, leading to elevated plasma levels of SP-D and IL1a. In this Example, C57BL/6 fibrosis-prone mice received a single-dose of thoracic IR at 15 Gy with a dose rate of 1.9 Gy/min and were treated as described in Example 2. The mice were sacrificed 2.5 days after IR exposure, and plasma levels of SP-D and IL1a were measured.
# [14] = tested on: ACTH (adrenocorticotropic hormone); conditions: in vivo
# Method: The chemical structure of GA is similar to that of cortisol. Thus, this Example investigates whether the long-term use of GA would affect the production of cortisol and cause side effects. The plasma levels of ACTH (adrenocorticotropic hormone), a cortisol-releasing hormone, were measured using ELISA at Weeks 6, 7, and 10 after GA-treatments (40 mg/kg, qod, p.o).
# [15] = tested on: pulmonary fibrosis; test: Inventors' observation on dexamethasone in pulmonary fibrosis; type: in vivo; conditions: compared to the non-treated controls
# [16] = 17 days after IR exposure at 15 Gy, P<0.05
# [17] = 17 days after IR exposure, P<0.05
smiles,measurement,setting,value
NCCCNCCSP(=O)(O)O [amifostine],"levels of inflammatory mediators (IMs), including IL1a, TNFa, PF4 and VCAM-1",[1],extent of inhibition by GA was comparable
"CC1(C)[C@@H](O[C@H]2O[C@H](C(=O)O)[C@@H](O)[C@H](O)[C@H]2O[C@@H]2O[C@H](C(=O)O)[C@@H](O)[C@H](O)[C@H]2O)CC[C@]2(C)[C@H]3C(=O)C=C4[C@@H]5C[C@@](C)(C(=O)O)CC[C@]5(C)CC[C@@]4(C)[C@]3(C)CC[C@@H]12 [GLA, glycyrrhizic acid]",symptoms of pneumonitis or fibrosis,[2]; 150 mg per day for 3 months from date of 2nd IR treatment,did not exhibit any symptom of pneumonitis or fibrosis
same,lung density (CT),[2]; CT results of 1st versus 2nd IR treatment (Figure 20),significantly reduced
"CC1(C)[C@@H](O)CC[C@]2(C)[C@H]3C(=O)C=C4[C@@H]5C[C@@](C)(C(=O)O)CC[C@]5(C)CC[C@@]4(C)[C@]3(C)CC[C@@H]12 [GA, glycyrrhetinic acid]",infiltration of neutrophils into the interstitial fluid,[3]; 17 days after IR exposure at 15 Gy,suppression
same,level of neutrophils infiltrated into the bronchoalveolar lavage fluid,[3]; [16],reduced
same,myeloperoxidase (MPO) activity in (BALF),[3]; [16],reduced
same,level of lymphotactin,[3]; [17],reduced
same,level of p-selectin,[3]; [17],reduced
same,"levels of key inflammatory mediators including IL1a, TNFa, lymphotactin and p-selectin",[4],potently reduced
same,death during treatment,[5]; long-term use,No mouse died
same,side effects of long-term use,"[5]; mouse, in vivo",little side effects
same,lung compliance,[6],"potently, and mostly effectively, enhanced"
same,"levels of inflammatory mediators (IMs), including IL1a, TNFa, PF4 and VCAM-1",[1],effectively reduced
same,plasma exudation and inflammatory cell infiltration into the interstitial space,[7],potently suppressed
same,collagen deposition caused by IR exposure (trichrome blue dye),[8],reduces
same,lung morphology (H&E stain),[8],near-normal morphology
same,hydroxyproline levels in the lungs,"[9]; compared to IR + vehicle control, P<0.05",reduced
same,level of TGFβ,"[9]; pro-fibrotic factor, Figure 18B",reduced
same,plasma GH level,[10]; in vivo,increased
same,abnormal increase in lung density,[11],significantly reduced
same,Mean Density (HU),"[11]; lung density, 1 year post IR exposure at 18 Gy",-458 HU
same,respiratory rate,[12],effectively reduced
same,plasma levels of IL1a,[13],effectively reduced
same,plasma levels of SP-D,[13],effectively reduced
C[C@@H]1C[C@H]2[C@@H]3CCC4=CC(=O)C=C[C@]4(C)[C@@]3(F)[C@@H](O)C[C@]2(C)[C@@]1(O)C(=O)CO [dexamethasone],plasma GH level,"[10]; measured at Weeks 6, 7, and 10",increased
same,reduction in ACTH levels,[14],10-50 fold
same,effect on pulmonary fibrosis,[15],worsening of pulmonary fibrosis
"Cc1ccc(-c2cc(C(F)(F)F)nn2-c2ccc(S(N)(=O)=O)cc2)cc1 [celebrex, reference compound]",loss of body weight (BW),"[5]; 7.5 months post IR exposure at 15 Gy, vehicle-treated mice lost 6-7 grams",less severe loss of BW
same,"levels of inflammatory mediators (IMs), including IL1a, TNFa, PF4 and VCAM-1",[1],extent of inhibition by GA was comparable
same,abnormal increase in lung density,[11],reduction in lung density by GA is more potent
